Measured values: article PMC8531552, “Full-Length Galectin-3 Is Required for High Affinity Microbial Interactions and Antimicrobial Activity” (Frontiers in Microbiology, 2021)

Tests used:
[1] = test system: K. pneumoniae O1; assay: Flow cytometry analysis of galectin binding to intact bacteria; set-up: species or system Klebsiella pneumoniae O1
Protocol: (§1) To examine potential binding by each galectin, bacteria were resuspended and washed twice in PBS at 4°C and then incubated with 0.1μM Alexa Fluor™ 488 labeled Gal-3 or Gal-3C at 4°C for 20min. In some experiments, Gal-3 or Gal-3C were co-incubated with 20mM thiodigalactoside (TDG) for 10min before incubation with the bacteria as a control. After incubation, cells were washed twice and resuspended them in 400μl PBS for flow cytometry analysis using FACSCanto II flow cytometer (BD Biosciences). The data were processed with FlowJo version 10.

[2] = test system: P. alcalifaciens O5; assay: as above; set-up: species or system Providentia alcalifaciens O5
Protocol: as §1

[3] = test system: P. alcalifaciens O21; assay: as above; set-up: species or system Providentia alcalifaciens O21; conditions: 0.1μM Alexa Fluor 488 labeled galectin, 4°C, 20min
Protocol: as §1

[4] = test system: K. pneumoniae O1; assay: Bacteria viability by CFU enumeration; type: cell-based, Klebsiella pneumoniae O1; conditions: 37°C, 2h
Protocol: (§2) When assaying potential antimicrobial effects of Gal-3 and Gal-3C, each strain was assessed in the mid-logarithmic growth phase (OD600 of ~0.1) and grown in LB media as outlined previously ([Arthur et al., 2015b]). Bacterial cells were incubated with the concentrations of each galectin indicated in the figure legends (0.04–10μM) at 37°C for 2h with shaking at 250rpm. Bacteria were then pipetted and plated on LB agar plate to determine the number of viable bacteria by CFU enumeration.

[5] = test system: P. alcalifaciens O5; assay: Bacteria viability by CFU enumeration; type: cell-based, Providentia alcalifaciens O5; conditions: 37°C, 2h
Protocol: as §2

[6] = test system: P. alcalifaciens O21; assay: Bacteria viability by CFU enumeration; type: cell-based, Providentia alcalifaciens O21; conditions: 0.04–10μM, 37°C, 2h
Protocol: as §2

[7] = test system: K. pneumoniae O4; assay: Bacteria viability by CFU enumeration; type: cell-based, Klebsiella pneumoniae O4; conditions: 0.04–10μM, 37°C, 2h
Protocol: as §2

[8] = target: T1, human Gal-3 (Homo sapiens, UniProt P17931); assay: CFG glycan microarray binding of Alexa Fluor 488 labeled Gal-3
T1 construct: made in house; host or cells: E. coli BL21 (DE3)
T1 sequence (P17931 whole entry): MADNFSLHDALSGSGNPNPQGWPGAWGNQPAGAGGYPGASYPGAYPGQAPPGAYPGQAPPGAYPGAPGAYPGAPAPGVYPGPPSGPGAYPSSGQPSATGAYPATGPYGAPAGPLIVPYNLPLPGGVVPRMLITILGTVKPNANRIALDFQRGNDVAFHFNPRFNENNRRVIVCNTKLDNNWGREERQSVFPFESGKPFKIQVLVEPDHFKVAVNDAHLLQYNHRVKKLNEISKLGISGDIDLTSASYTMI
Protocol: (§3) Galectins were labeled with Alexa Fluor™ 488 NHS Ester (succinimidyl ester) by incubating 2mg/ml galectin with 1mg Alexa Fluor™ 488 for 1h at room temperature and avoid from light as outlined previously ([Stowell et al., 2004]). […] While 2-ME is not required for Gal-3 activity, this approach was used to provide a consistent protocol for all galectin purification. […] Finally, labeled galectin was applied to CFG glycan microarray (CFG) and MGM prepared as described previously ([Blixt et al., 2004]; [Stowell et al., 2008a], [2014]; [Song et al., 2009]; [Wu et al., 2021a]). […] The slide was dried by microcentrifugation, and an image of bound fluorescence was obtained using a microarray scanner (GenePix 4000 B, Molecular devices). […] For non-saturated positive glycan interactions, the relative fluorescence units were plotted as a percent of the maximal binding at the highest concentration examined.
(§4) In order to compare the relative binding affinities of Gal-3 and Gal-3C toward blood group antigens and other glycan structures present on the array, we calculated the relative KD generated from binding isotherm data for each galectin toward various blood group antigens, polylactosamine (polyLacNAc), and other common structural modifications previously shown to influence galectin recognition (e.g., α2-6 sialylation).

[9] = target: T2, human Gal-3C (C-terminal domain of Gal-3) (Homo sapiens, UniProt P17931); assay: CFG glycan microarray binding of Alexa Fluor 488 labeled Gal-3C
T2 construct: made in house; host or cells: E. coli BL21 (DE3)
T2 sequence (P17931 118-248 limits assumed): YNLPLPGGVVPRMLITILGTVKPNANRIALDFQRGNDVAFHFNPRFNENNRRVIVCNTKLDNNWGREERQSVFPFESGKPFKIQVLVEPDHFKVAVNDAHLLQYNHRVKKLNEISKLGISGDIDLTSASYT
Protocol: as §3, §4

[10] = 20mM TDG co-incubated with galectin
[11] = 0.1μM Alexa Fluor 488 labeled galectin, 4°C, 20min

Molecule: OC[C@H]1O[C@@H](S[C@@H]2O[C@H](CO)[C@H](O)[C@H](O)[C@H]2O)[C@H](O)[C@@H](O)[C@H]1O [TDG, thiodigalactoside, reference compound]
- effect on Gal-3 and Gal-3C binding to K. pneumoniae O1 [1, 10]: prevented binding
- effect on Gal-3 and Gal-3C engagement of P. alcalifaciens O5 [2, 10]: inhibited recognition

Molecule: Gal-3: recombinant human galectin-3, full-length chimeric galectin expressed in E. coli
- binding to P. alcalifaciens O21 [3]: failed to result in any detectable binding
- impact on viability of K. pneumoniae O1 ([4]; 0.04–10μM): loss of microbial viability was noted at higher concentrations
- EC50 ([4]; CFU enumeration, read-out: EC50 toward K. pneumoniae O1 viability): 750 nM
- impact on viability of P. alcalifaciens O5 ([5]; 0.04–10μM): reduced viability
- EC50 ([5]; CFU enumeration, read-out: effective concentration 50 (EC50), viability of P. alcalifaciens O5): ~170 nM
- binding to K. pneumoniae O1 [1, 11]: bound K. pneumoniae O1
- impact on viability of P. alcalifaciens O21 [6]: failed to result in any detectable impact on microbial viability
- binding to P. alcalifaciens O5 [2, 11]: Clear interactions
- impact on viability of K. pneumoniae O4 [7]: failed to impact the viability

Molecule: blood group B
- Gal-3 concentration at which recognition was observed ([8]; CFG array, virtually no binding at or below 0.12μM): 0.36 µM
- Gal-3 binding on CFG array ([8]; binding isotherms, Fig 2 and 3): high affinity interactions
- Gal-3C concentration required for similar absolute binding as Gal-3 at […] ([9]; CFG array): 3.3 µM
- Gal-3C binding on CFG array ([9]; binding isotherms, Fig 2): high affinity interactions
